Assay results from US20260027221A1, “Targeted Pyrrolobenzodiazapine Conjugates” (BeOne Medicines I GmbH, priority 2023, published 2026).
Where “and” joins values, the source holds several entries; their conditions need not be identical. Equal values may be shown once.

Experiments:
[1] = tested on: A375 cells; test: Compounds cellular killing in A375 cancer line (Cell Titer-Glo, 6 days); type: cell-based, human; conditions: 6 days incubation, cell viability by Cell Titer-Glo; for EC50 / Emax: Homo sapiens, A-375, 144 h
Method: (§1) A375 (ATCC, CRL-1619). […] The base medium for A375 is DMEM, high glucose, GlutaMAX™ Supplement (Gibco, 10566024). To make the complete growth medium, fetal bovine serum was added to the base mediumat a final concentration of 10% (Gibco, 10099-141C). The cell line was grown in a humidified 5% CO2 atmosphere at 37° C., and was regularly tested for the presence of mycoplasma with MycoAlert™ PLUS Mycoplasma Detection Kit (Lonza, LT07-710).
(§2) Payload direct killing by compounds 1-1 to 1-22 was assessed in A375 and Calu-6 cancer cell lines. Cells were seeded at 1E3/well (A375) 2E3/well (Calu-6) into 96-well plates (Greiner: 655090), 100 μL/well, and incubated at 37° C., 5% CO2, overnight. Fresh growth medium was added containing varying concentrations of compounds, 50 μL/well, and incubated at 37° C., 5% CO2, for 6 days. The cell viability detected by Cell Titer-Glo (Promega, G7573), 70 μL/well. The plates were allowed to incubate at room temperature for 10 minutes to stabilize the luminescent signal. The plates were analyzed with a microplate reader.

[2] = tested on: Calu-6 cells; test: Compounds cellular killing in Calu-6 cancer line (Cell Titer-Glo, 6 days); type: cell-based, human; conditions: 6 days incubation, cell viability by Cell Titer-Glo; for EC50 / Emax: Homo sapiens, Calu-6, 144 h
Method: as §1, with “Calu-6” for “A375”, “HTB-56).” for “CRL-1619).”, “Eagle's Minimum Essential Medium (ATCC, 30-2003).” for “DMEM, high glucose, GlutaMAX™ Supplement (Gibco, 10566024).”
as §2

Row | Structure (SMILES) | EC50 [1] [nM] | Emax [1] [%] | EC50 [2] [nM] | Emax [2] [%] | A375 Emax (%) [1] | Calu-6 Emax (%) [2]
1 | COc1cc2c(cc1OCC13CC(COc4cc5c(cc4OC)C(=O)N4Cc6ccccc6C[C@H]4CN5)(C1)C3)N=C[C@@H]1CC3(CC3)CN1C2=O [Compound 1-12, (S)-2-methoxy-3-((3-((((S)-7-methoxy-5-oxo-5,11a-dihydro-1H,3H-spiro[benzo[e]pyrrolo[1,2-a][1,4]diazepine-2,1′-cyclopropan]-8-yl)oxy)methyl)bicyclo[1.1.1]pentan-1-yl)methoxy)-6,6a,7,12-tetrahydrobenzo[5,6][1,4]diazepino[1,2-b]isoquinolin-14(5H)-one] | 297 | 97.5 | 108 | 99.4 |  | 
2 | COc1cc2c(cc1OCCCCCOc1cc3c(cc1OC)C(=O)N1Cc4ccccc4C[C@H]1C=N3)N=C[C@@H]1CC3(CCN1C2=O)CC3 [Compound 1-20, (S)-2-methoxy-3-((5-(((S)-2-methoxy-12-oxo-6a,9,10,12-tetrahydro-7H-spiro[benzo[e]pyrido[1,2-a][1,4]diazepine-8,1′-cyclopropan]-3-yl)oxy)pentyl)oxy)-7,12-dihydrobenzo[5,6][1,4]diazepino[1,2-b]isoquinolin-14(6aH)-one] | 0.064 | 95.9 | 0.016 | 98.3 |  | 
3 | COc1cc2c(cc1OCCCCCOc1cc3c(cc1OC)C(=O)N1CC4(CC4)C[C@H]1C=N3)N=C[C@@H]1Cc3ccccc3CN1C2=O [Compound 1-1, (S)-2-methoxy-3-((5-(((S)-7-methoxy-5-oxo-5,11a-dihydro-1H,3H-spiro[benzo[e]pyrrolo[1,2-a][1,4]diazepine-2,1′-cyclopropan]-8-yl)oxy)pentyl)oxy)-7,12-dihydrobenzo[5,6][1,4]diazepino[1,2-b]isoquinolin-14(6aH)-one] | 0.005 | 99.8 | 0.002 | 99.5 |  | 
4 | COc1cc2c(cc1OCc1cc(O)cc(COc3cc4c(cc3OC)C(=O)N3CC5(CC5)C[C@H]3C=N4)c1)N=C[C@@H]1CC3(CC3)CN1C2=O [Compound 1-18, (11aS,11a″S)-8,8″-(((5-hydroxy-1,3-phenylene)bis(methylene))bis(oxy))bis(7-methoxy-1,11a-dihydro-3H,5H-spiro[benzo[e]pyrrolo[1,2-a][1,4]diazepine-2,1′-cyclopropan]-5-one)] | 0.398 | 80.3 | 0.126 | 89.8 |  | 
5 | COc1cc2c(cc1OCCCCCOc1cc3c(cc1OC)C(=O)N1CC4(CC4)C[C@H]1CN3)NC[C@@H]1Cc3ccccc3CN1C2=O [Compound 1-4, (S)-2-methoxy-3-((5-(((S)-7-methoxy-5-oxo-5,10,11,11a-tetrahydro-1H,3H-spiro[benzo[e]pyrrolo[1,2-a][1,4]diazepine-2,1′-cyclopropan]-8-yl)oxy)pentyl)oxy)-6,6a,7,12-tetrahydrobenzo[5,6][1,4]diazepino[1,2-b]isoquinolin-14(5H)-one] | 0.14 | 90.6 | 0.077 | 94.9 |  | 
6 | COc1cc2c(cc1OC/C=C/CCOc1cc3c(cc1OC)C(=O)N1CC4(CC4)C[C@H]1C=N3)N=C[C@@H]1CC3(CC3)CN1C2=O [Compound 1-19, (11aS,11a″S)-8,8″-(((E)-pent-2-ene-1,5-diyl)bis(oxy))bis(7-methoxy-1,11a-dihydro-3H,5H-spiro[benzo[e]pyrrolo[1,2-a][1,4]diazepine-2,1′-cyclopropan]-5-one)] | 0.165 | 88.7 | 0.052 | 90.6 |  | 
7 | COc1cc2c(cc1OCc1cccc(COc3cc4c(cc3OC)C(=O)N3CC5(CC5)C[C@H]3CN4)c1)N=C[C@@H]1CC3(CC3)CN1C2=O [Compound 1-9, (S)-7-methoxy-8-((3-((((S)-7-methoxy-5-oxo-5,11a-dihydro-1H,3H-spiro[benzo[e]pyrrolo[1,2-a][1,4]diazepine-2,1′-cyclopropan]-8-yl)oxy)methyl)benzyl)oxy)-1,10,11,11a-tetrahydro-3H,5H-spiro[benzo[e]pyrrolo[1,2-a][1,4]diazepine-2,1′-cyclopropan]-5-one] | 0.01 | 99.9 | 0.002 | 99.7 |  | 
8 | COc1cc2c(cc1OCCCOc1cc3c(cc1OC)C(=O)N1CC4(CC4)C[C@H]1CN3)N=C[C@@H]1Cc3ccccc3CN1C2=O [Compound 1-15, (S)-2-methoxy-3-(3-(((S)-7-methoxy-5-oxo-5,10,11,11a-tetrahydro-1H,3H-spiro[benzo[e]pyrrolo[1,2-a][1,4]diazepine-2,1′-cyclopropan]-8-yl)oxy)propoxy)-7,12-dihydrobenzo[5,6][1,4]diazepino[1,2-b]isoquinolin-14(6aH)-one] | 0.134 | 99.5 | 0.045 | 99.7 |  | 
9 | COc1cc2c(cc1OCCCCCOc1cc3c(cc1OC)C(=O)N1CC4(CC4)C[C@H]1C=N3)N=C[C@@H]1CCCCN1C2=O [Compound 1-16, (S)-7-methoxy-8-((5-(((S)-2-methoxy-12-oxo-6a,7,8,9,10,12-hexahydrobenzo[e]pyrido[1,2-a][1,4]diazepin-3-yl)oxy)pentyl)oxy)-1,11a-dihydro-3H,5H-spiro[benzo[e]pyrrolo[1,2-a][1,4]diazepine-2,1′-cyclopropan]-5-one] | 0.146 | 89.6 | 0.038 | 92.3 |  | 
10 | COc1cc2c(cc1OCCCCCOc1cc3c(cc1OC)C(=O)N1C=C(C)C[C@H]1C=N3)N=C[C@@H]1CC(C)=CN1C2=O [Ref-1-1, reference compound] |  | 99.8 |  | 99.5 | 99.9% and 99.6% | 99.8% and 99.3% and 93.1%
11 | C=C1C[C@H]2C=Nc3cc(OCCNCCOc4cc5c(cc4OC)C(=O)N4CC(=C)C[C@H]4C=N5)c(OC)cc3C(=O)N2C1 [Compound 1-21, (11aS,11a'S)-8,8′-((azanediylbis(ethane-2,1-diyl))bis(oxy))bis(7-methoxy-2-methylene-1,2,3,11a-tetrahydro-5H-benzo[e]pyrrolo[1,2-a][1,4]diazepin-5-one)] | 4.2 | 97.8 | 1.2 | 99.3 |  | 
12 | COc1ccc(C2=CN3C(=O)c4cc(OC)c(OCCCCCOc5cc6c(cc5OC)C(=O)N5CCC7(CC7)C[C@H]5C=N6)cc4NC[C@@H]3C2)cc1 [Compound 1-6, (S)-2-methoxy-3-((5-(((S)-7-methoxy-2-(4-methoxyphenyl)-5-oxo-5,10,11,11a-tetrahydro-1H-benzo[e]pyrrolo[1,2-a][1,4]diazepin-8-yl)oxy)pentyl)oxy)-6a,7,9,10-tetrahydro-12H-spiro[benzo[e]pyrido[1,2-a][1,4]diazepine-8,1′-cyclopropan]-12-one] | 0.067 | 97.5 | 0.033 | 97.6 |  | 
13 | COc1cc2c(cc1OCc1cccc(COc3cc4c(cc3OC)C(=O)N3CC5(CC5)C[C@H]3C=N4)n1)N=C[C@@H]1CC3(CC3)CN1C2=O [Compound 1-17, (11aS,11a″S)-8,8″-((pyridine-2,6-diylbis(methylene))bis(oxy))bis(7-methoxy-1,11a-dihydro-3H,5H-spiro[benzo[e]pyrrolo[1,2-a][1,4]diazepine-2,1′-cyclopropan]-5-one)] | 0.017 | 99.9 | 0.005 | 99.7 |  | 
14 | COc1cc2c(cc1OCCOCCOc1cc3c(cc1OC)C(=O)N1CC4(CC4)C[C@H]1C=N3)N=C[C@@H]1Cc3ccccc3CN1C2=O [Compound 1-5, (S)-2-methoxy-3-(2-(2-(((S)-7-methoxy-5-oxo-5,11a-dihydro-1H,3H-spiro[benzo[e]pyrrolo[1,2-a][1,4]diazepine-2,1′-cyclopropan]-8-yl)oxy)ethoxy)ethoxy)-7,12-dihydrobenzo[5,6][1,4]diazepino[1,2-b]isoquinolin-14(6aH)-one] | > 1 | 39.2 | 0.165 | 90.8 |  | 
15 | COc1cc2c(cc1OCC13CC(COc4cc5c(cc4OC)C(=O)N4CC6(CC6)C[C@H]4C=N5)(C1)C3)N=C[C@@H]1Cc3ccccc3CN1C2=O [Compound 1-11, (S)-2-methoxy-3-((3-((((S)-7-methoxy-5-oxo-5,11a-dihydro-1H,3H-spiro[benzo[e]pyrrolo[1,2-a][1,4]diazepine-2,1′-cyclopropan]-8-yl)oxy)methyl)bicyclo[1.1.1]pentan-1-yl)methoxy)-7,12-dihydrobenzo[5,6][1,4]diazepino[1,2-b]isoquinolin-14(6aH)-one] | 6.11 | 99.9 | 0.34 | 99.4 |  | 
